Measured values reported in US20240366560A1, “SMALL MOLECULE TREATMENT OF FATTY LIVER DISEASE AND HCC” (ScandiEdge Therapeutics AB, priority 2021, published 2024).

System: HSD-fed rats
Experiment: In vivo efficacy study in HSD-fed steatosis rats: histopathological examination
Conditions: 30 mg/kg; for degeneration in renal tubule epithelium / fattening in the parenchyma cells of pancreas tissues / degeneration in hepatocytes in liver tissues / steatosis in hepatocytes in liver tissues: HSD 3w group: severe; for degeneration in hepatocytes in liver tissues / steatosis in hepatocytes in liver tissues: FIG. 3
Excerpt: In vivo efficacy studies. After 1-week acclimation period, rats were randomly separated into two groups: control group (n=5) and high sucrose group (n=20). The control group was fed with a standard diet while the others consumed high sucrose diet (HSD). Sucrose was purchased from Sigma Chemical Co. (St Louis, MO, USA) and supplied at the dose of 10% in the drink water for two weeks.
After 2 weeks, five rats in the HSD group were randomly sacrificed for conformation of NAFLD model. Then, the remaining rats in the HSD group were separated into three sub-groups (n=5): HSD group, HSD plus BX-912 group and HSD plus JNK-IN-5A group. BX-912 and JNK-IN-5A were dissolved in DMSO and were orally administrated using oral gavage for one week (30 mg/kg/day). The HSD group were treated with vehicle solution only.
At the end of the experiment, rats were sacrificed after being anesthetized. Blood samples were collected from the abdominal aorta and centrifuged at 8000 rpm for 15 min at 4° C. The plasma was separated and stored at −80° C. until further analysis. Other internal organs, including the heart, adipose tissues, liver, kidney, muscle, intestine (duodenum, ileum, jejunum), pancreas, colon and stomach were immediately removed and then snap frozen in liquid nitrogen and stored at −80° C.; the liver was also fixed in 10% formaldehyde for histopathological examination.
Histopathological examination. The liver tissues were fixed in 10% buffered formaldehyde solution. After fixation, the tissues were passed through graded alcohol and xylene series and embedded in paraffin blocks. 5 micrometer thick sections were taken serially from the paraffin blocks. Histopathological changes were evaluated by performing hematoxylin eosin staining on the sections taken. Sections were evaluated according to histopathological findings as none (−), mild (+), moderate (++) and severe (+++).
Next, the efficacy of these two drugs in a steatosis rat study was investigated by feeding the animals with HSD. Five groups of 12-week-old rats (n=5) were raised. For two weeks, the first group was fed with CHOW and the remaining four groups were fed with HSD. […] One of the remaining groups was fed with HSD (HSD 3w) for seven days. Another one of the remaining groups was fed with HSD plus BX-912 (30 mg/kg) for seven days. The last one of the remaining groups was fed with HSD plus JNK-IN-5A (30 mg/kg) for seven days. After said seven days, all three groups were sacrificed, and tissue samples from the liver and other major organs and blood samples were collected for efficacy examination. A histopathological and immunohistochemical analysis was performed on the liver samples and other major organs obtained from the three rat groups.

`N#Cc1c(NC(=O)c2cccc3ccccc23)sc2c1CCCC2` [JNK-IN-5A, N-(3-cyano-4,5,6,7-tetrahydrobenzo [b]thien-2-yl)-1-naphthalenecarboxamide] was tested, and the “toxic effect on small intestine, large intestine, stomach, heart and muscle tissues” value (HSD-fed rats, 7 days) was “no toxic effect”, the “degeneration in renal tubule epithelium” value (HSD-fed rats, 7 days) was “mild” and the “fattening in the parenchyma cells of pancreas tissues” value (HSD-fed rats, 7 days) was “mild”. For the same molecule, the “degeneration in hepatocytes in liver tissues” value (HSD-fed rats, 7 days) was “mild” and the “steatosis in hepatocytes in liver tissues” value (HSD-fed rats, 7 days) was “mild”.

`O=C(Nc1cccc(Nc2ncc(Br)c(NCCc3cnc[nH]3)n2)c1)N1CCCC1` [BX-912, N-[3-[[5-bromo-4-[[2-(1H-imidazol-5-yl)ethyl]amino]-2-pyrimidinyl]amino]phenyl]-1-pyrrolidinecarboxamide] was tested, and the “degeneration in renal tubule epithelium” value (HSD-fed rats, 7 days) was “mild”, the “fattening in the parenchyma cells of pancreas tissues” value (HSD-fed rats, 7 days) was “mild” and the “degeneration in hepatocytes in liver tissues” value (HSD-fed rats, 7 days) was “Mild”. For the same molecule, the “steatosis in hepatocytes in liver tissues” value (HSD-fed rats, 7 days) was “moderate” and the “toxic effect on small intestine, large intestine, stomach, heart and muscle tissues” value (rat, in vivo) was “no toxic effect”.
